What was measured:
[1] = target: T1, human recombinant adrenergic α2B receptor (Homo sapiens, UniProt P18089); assay: Radioligand binding assay, adrenergic α2B ([3H]Rauwolscine); conditions: compound at 0.1 μM; 2.5 nM [3H]Rauwolscine; CHO-K1 cells; read-out: Percentage inhibition of ligand binding, Adrenergic α2B
T1 construct: expressed in transfected cells; host or cells: Chinese hamster ovary (CHO) K1 cells
T1 sequence (P18089 1-450): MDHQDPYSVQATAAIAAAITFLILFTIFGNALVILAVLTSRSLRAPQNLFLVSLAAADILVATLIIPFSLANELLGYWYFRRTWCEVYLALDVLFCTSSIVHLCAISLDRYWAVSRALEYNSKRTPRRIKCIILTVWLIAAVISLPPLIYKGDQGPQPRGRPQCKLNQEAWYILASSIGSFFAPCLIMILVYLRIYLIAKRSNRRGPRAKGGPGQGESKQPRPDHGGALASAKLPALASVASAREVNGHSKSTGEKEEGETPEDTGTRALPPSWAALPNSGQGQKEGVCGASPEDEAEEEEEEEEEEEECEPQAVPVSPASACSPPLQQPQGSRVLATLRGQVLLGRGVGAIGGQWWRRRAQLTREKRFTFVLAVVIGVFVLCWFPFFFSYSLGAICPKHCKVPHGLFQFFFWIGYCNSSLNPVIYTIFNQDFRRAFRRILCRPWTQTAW
Experimental: To evaluate in radioligand binding assays the activity of compounds, human recombinant adrenergic α2B receptor expressed in Chinese hamster ovary (CHO) K1 cells (Uhlen, S. et al, Eur. J. Pharmacol. 343(1):93, 1998) in a modified Tris-HCl buffer (50 mM Tris-HCl, pH 7.4, 12.5 mM MgCl2, 1 mM EDTA, 0.2% BSA) was used. Compounds were incubated with 2.5 nM [^3H]Rauwolscine for 60 min at 25° C. Non-specific binding was estimated in the presence of 10 μM Prazosin. Receptor proteins were filtered and washed, the filters were then counted to determine [^3H]Rauwolscine specifically bound. Compounds were screened at 1 μM or lower, using 1% DMSO as vehicle. Compounds were tested in this biochemical assay and percent inhibition of specific binding was determined. Biochemical assay results are presented as the percent inhibition of specific binding in Tables B1A-B1D.

[2] = target: T2, human recombinant adrenergic α2A receptor (Homo sapiens, UniProt P08913); assay: Radioligand binding assay, adrenergic α2A ([3H]MK-912); conditions: compound at 0.1 μM; 1 nM [3H]MK-912; Sf9 cells; read-out: Percentage inhibition of ligand binding, Adrenergic α2A
T2 construct: expressed in transfected cells; host or cells: insect Sf9 cells
T2 sequence (P08913 1-465): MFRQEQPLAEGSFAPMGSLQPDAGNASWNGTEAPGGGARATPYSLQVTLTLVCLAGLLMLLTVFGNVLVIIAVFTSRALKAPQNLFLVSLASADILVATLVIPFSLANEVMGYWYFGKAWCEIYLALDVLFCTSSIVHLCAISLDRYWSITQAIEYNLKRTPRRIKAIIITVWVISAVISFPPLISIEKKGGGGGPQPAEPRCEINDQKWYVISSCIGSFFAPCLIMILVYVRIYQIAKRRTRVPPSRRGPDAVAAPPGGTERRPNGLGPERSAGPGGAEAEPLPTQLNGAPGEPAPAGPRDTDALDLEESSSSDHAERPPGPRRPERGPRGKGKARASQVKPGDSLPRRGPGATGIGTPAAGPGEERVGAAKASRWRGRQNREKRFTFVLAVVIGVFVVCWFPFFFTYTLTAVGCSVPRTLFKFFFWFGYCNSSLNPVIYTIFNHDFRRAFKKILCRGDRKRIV
Experimental: To evaluate in radioligand binding assays the activity of compounds, human recombinant adrenergic α2A receptor expressed in insect Sf9 cells (Uhlen, S. et al, J. Pharmacol. Exp. Ther. 271:1558, 1994) in a modified Tris-HCl buffer (50 mM Tris-HCl, pH 7.4, 12.5 mM MgCl2, 2 mM EDTA) was used. Compounds were incubated with 1 nM [^3H]MK-912 for 60 min at 25° C. MK912 is (2S-trans)-1,3,4,5′,6,6′,7,12b-octahydro-1′,3′-dimethyl-spiro[2H-benzofuro[2,3-a]quinolizine-2,4′(1′H)-pyrimidin]-2′(3′H)-one hydrochloride. Non-specific binding was estimated in the presence of 10 μM WB-4101 (2-(2,6-Dimethoxyphenoxyethyl)aminomethyl-1,4-benzodioxane hydrochloride). Receptor proteins were filtered and washed, the filters were then counted to determine [^3H]MK-912 specifically bound. Compounds were screened at 1 μM or lower, using 1% DMSO as vehicle. Compounds were tested in this biochemical assay and percent inhibition of specific binding was determined. Biochemical assay results are presented as the percent inhibition of specific binding in Tables B1A-B1D.

[3] = target: T3, rat adrenergic α1B receptor (Rattus norvegicus, UniProt P15823); assay: Radioligand binding assay, adrenergic α1B ([3H]Prazosin); conditions: compound at 0.1 μM; 0.25 nM [3H]Prazosin; Wistar rat liver; read-out: Percentage inhibition of ligand binding, Adrenergic α1B
T3 construct: rat adrenergic α1B receptor obtained from Wistar Rat liver; from tissue; host or cells: Wistar rat liver
T3 sequence (P15823 1-515): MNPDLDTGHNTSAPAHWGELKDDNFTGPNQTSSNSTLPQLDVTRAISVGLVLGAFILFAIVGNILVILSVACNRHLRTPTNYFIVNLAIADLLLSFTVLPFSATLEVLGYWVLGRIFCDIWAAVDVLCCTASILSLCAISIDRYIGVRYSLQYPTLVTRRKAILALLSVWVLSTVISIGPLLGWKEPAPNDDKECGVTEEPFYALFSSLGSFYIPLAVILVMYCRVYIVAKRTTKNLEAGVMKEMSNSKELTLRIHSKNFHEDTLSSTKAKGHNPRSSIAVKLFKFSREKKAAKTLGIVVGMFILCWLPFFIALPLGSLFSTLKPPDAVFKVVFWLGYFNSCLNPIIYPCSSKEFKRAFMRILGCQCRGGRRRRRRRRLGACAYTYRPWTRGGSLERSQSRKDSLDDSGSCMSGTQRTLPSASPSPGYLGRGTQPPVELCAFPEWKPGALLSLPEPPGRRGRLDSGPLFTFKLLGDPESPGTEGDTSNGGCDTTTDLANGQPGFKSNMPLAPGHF
Experimental: To evaluate in radioligand binding assays the activity of compounds, rat adrenergic α1B receptor obtained from Wistar Rat liver (Garcia-S'ainz, J. et al, Biochem. Biophys. Res. Commun. 186:760, 1992; Michel, A. et al, Br. J. Pharmacol. 98:883, 1989) in a modified Tris-HCl buffer (50 mM Tris-HCl buffer, pH 7.4, 0.5 mM EDTA) was used. Compounds were incubated with 0.25 nM [^3H]Prazosin for 60 min at 25° C. Non-specific binding was estimated in the presence of 10 μM phentolamine. Receptor proteins were filtered and washed, the filters were then counted to determine [^3H]Prazosin specifically bound. Compounds were screened at 1 μM or lower, using 1% DMSO as vehicle. Compounds were tested in this biochemical assay and percent inhibition of specific binding was determined. Biochemical assay results are presented as the percent inhibition of specific binding in Tables B1A-B1D.

[4] = target: T4, human recombinant adrenergic α1D receptor (Homo sapiens, UniProt P25100); assay: Radioligand binding assay, adrenergic α1D ([3H]Prazosin); conditions: compound at 0.1 μM; 0.6 nM [3H]Prazosin; HEK-293 cells; read-out: Percentage inhibition of ligand binding, Adrenergic α1D
T4 construct: expressed in transfected cells; host or cells: human embryonic kidney (HEK-293) cells
T4 sequence (P25100 1-572): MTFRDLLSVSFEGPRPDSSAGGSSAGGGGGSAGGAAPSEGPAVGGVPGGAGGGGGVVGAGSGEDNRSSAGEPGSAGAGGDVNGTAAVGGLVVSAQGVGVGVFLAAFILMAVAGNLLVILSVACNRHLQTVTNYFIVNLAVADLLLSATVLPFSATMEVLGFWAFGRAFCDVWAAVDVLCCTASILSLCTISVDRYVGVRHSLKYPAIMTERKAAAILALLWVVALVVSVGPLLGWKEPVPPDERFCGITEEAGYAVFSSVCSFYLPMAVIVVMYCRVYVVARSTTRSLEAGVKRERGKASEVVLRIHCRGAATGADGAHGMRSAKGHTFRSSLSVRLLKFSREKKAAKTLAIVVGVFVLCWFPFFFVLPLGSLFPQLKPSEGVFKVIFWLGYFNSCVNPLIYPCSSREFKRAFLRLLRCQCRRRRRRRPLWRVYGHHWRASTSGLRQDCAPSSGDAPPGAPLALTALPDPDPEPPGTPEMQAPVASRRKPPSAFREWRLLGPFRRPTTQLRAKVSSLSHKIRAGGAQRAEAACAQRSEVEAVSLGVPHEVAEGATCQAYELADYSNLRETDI
Experimental: To evaluate in radioligand binding assays the activity of compounds of the invention, human recombinant adrenergic α1D receptor expressed in human embryonic kidney (HEK-293) cells (Kenny, B. et al, Br. J. Pharmacol. 115(6):981, 1995) in a 50 mM Tris-HCl buffer, pH 7.4, was used. Compounds were incubated with 0.6 nM [3H]Prazosin for 60 min at 25° C. Non-specific binding was estimated in the presence of 10 μM phentolamine. Receptor proteins were filtered and washed, the filters were then counted to determine [3H]Prazosin specifically bound. Compounds were screened at 1 μM or lower, using 1% DMSO as vehicle. Biochemical assay results are presented as the percent inhibition of specific binding in Tables B1A-B1D.

Row | Structure (SMILES) | inhibition at 0.1 µM [1] | inhibition at 0.1 µM [2] | inhibition at 0.1 µM [3] | inhibition at 0.1 µM [4]
1 | Cc1cc(-c2ccc(F)cc2)c2[nH]c3c(c2c1)CN(C)CC3 [Compound A7] | -9% | 10% | 2% | 4%
2 | Cc1cc2c3c(c1)c1c(n3CC2c2ccc(C)nc2)CCN(C)C1 (centres unmarked) [Compound B210] | 14% |  |  | 

Reference: patent US9434747B2, “Methods of treating diabetes” (Medivation Technologies, Inc., priority 2011, dated 2016)
